Measured values reported in patent publication US9499550B2 (BRISTOL-MYERS SQUIBB COMPANY, priority 2012, dated 2016).
pEC50: −log10 of the molar value.

Assays:
[1] = system: HCV genotype 1a (H77 strain) replicon in HUH-7 cells; assay: HCV replicon luciferase reporter assay, genotype 1a; type: cell-based; details: Hepatitis C virus, Huh-7, 72 h, HCV genotype 1a replicon luciferase assay, 3 days incubation, range class, read-out: LE_1a (EC50, range)
In short: (§1)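 Replicon inhibition for both genotypes was measured as Renilla luciferase signal (EnduRen, 7.5 μM final, 2 h) after 3-day, 37° C exposure of replicon-bearing HUH-7 cells in 4% FCS DMEM, 0.5% DMSO. The 1b construct carries S1179I; the 1a H77 construct carries P1496L and S2204I. Twenty-point, 3-fold dilutions were fitted four-parametrically for EC50, and CC50 was taken from multiplexed Cell Titer-Blue.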

[2] = system: HCV genotype 1b (Con1) replicon in HUH-7 cells; assay: HCV replicon luciferase reporter assay, genotype 1b; type: cell-based; details: Hepatitis C virus, Huh-7, 72 h, HCV genotype 1b replicon luciferase assay, 3 days incubation, range class, read-out: LE_1b (EC50, range)
In short: as §1

Compound | pEC50 [1] | pEC50 [2]
COc1cc(F)cc2c(O[C@@H]3C[C@H]4C(=O)N[C@]5(C(=O)NS(=O)(=O)C6(C)CC6)C[C@H]5/C=C\CC[C@@H](C)C[C@@H](C)[C@H](NC(=O)OC(C)(C)C)C(=O)N4C3)nccc12 [Compound 3154, tert-butyl ((2R,6S,7R,9R,13aS,14aR,16aS,Z)-2-((7-fluoro-5-methoxyisoquinolin-1-yl)oxy)-7,9-dimethyl-14a-(((1-methylcyclopropyl)sulfonyl)carbamoyl)-5,16-dioxo-1,2,3,5,6,7,8,9,10,11,13a,14,14a,15,16,16a-hexadecahydrocyclopropa[e]pyrrolo[1,2-a][1,4]diazacyclopentadecin-6-yl)carbamate] | > 8.26 | > 8.26
COc1cc(F)cc2c(O[C@@H]3C[C@H]4C(=O)N[C@]5(C(=O)NS(=O)(=O)C6(C)CC6)C[C@H]5/C=C\CC[C@H](C)C[C@@H](C)[C@H](NC(=O)OC(C)(C)C(F)(F)F)C(=O)N4C3)nccc12 [Compound 3155, 1,1,1-trifluoro-2-methylpropan-2-yl((2R,6S,7R,9S,13aS,14aR,16aS,Z)-2-((7-fluoro-5-methoxyisoquinolin-1-yl)oxy)-7,9-dimethyl-14a-(((1-methylcyclopropyl)sulfonyl)carbamoyl)-5,16-dioxo-1,2,3,5,6,7,8,9,10,11,13a,14,14a,15,16,16a-hexadecahydrocyclopropa[e]pyrrolo[1,2-a][1,4]diazacyclopentadecin-6-yl)carbamate] | 6.99 to 8.32 | 6.99 to 8.32
COc1cc(F)cc2c(O[C@@H]3C[C@H]4C(=O)N[C@]5(C(=O)NS(=O)(=O)C6(C)CC6)C[C@H]5/C=C\CC[C@@H](C)C[C@@H](C)[C@H](NC(=O)OC(C)(C)C(F)(F)F)C(=O)N4C3)nccc12 [Compound 3156, 1,1,1-trifluoro-2-methylpropan-2-yl((2R,6S,7R,9R,13aS,14aR,16aS,Z)-2-((7-fluoro-5-methoxyisoquinolin-1-yl)oxy)-7,9-dimethyl-14a-(((1-methylcyclopropyl)sulfonyl)carbamoyl)-5,16-dioxo-1,2,3,5,6,7,8,9,10,11,13a,14,14a,15,16,16a-hexadecahydrocyclopropa[e]pyrrolo[1,2-a][1,4]diazacyclopentadecin-6-yl)carbamate] | > 8.26 | > 8.26
COc1cc(F)cc2c(O[C@@H]3C[C@H]4C(=O)N[C@]5(C(=O)NS(=O)(=O)C6(C)CC6)C[C@H]5/C=C\CC[C@H](C)C[C@@H](C)[C@H](NC(=O)O[C@H](C)C(F)(F)F)C(=O)N4C3)nccc12 [Compound 3157, (R)-1,1,1-trifluoropropan-2-yl ((2R,6S,7R,9S,13aS,14aR,16aS,Z)-2-((7-fluoro-5-methoxyisoquinolin-1-yl)oxy)-7,9-dimethyl-14a-(((1-methylcyclopropyl)sulfonyl)carbamoyl)-5,16-dioxo-1,2,3,5,6,7,8,9,10,11,13a,14,14a,15,16,16a-hexadecahydrocyclopropa[e]pyrrolo[1,2-a][1,4]diazacyclopentadecin-6-yl)carbamate] | 6.99 to 8.32 | > 8.26
COc1cc(F)cc2c(O[C@@H]3C[C@H]4C(=O)N[C@]5(C(=O)NS(=O)(=O)C6(C)CC6)C[C@H]5/C=C\CC[C@@H](C)C[C@@H](C)[C@H](NC(=O)O[C@H](C)C(F)(F)F)C(=O)N4C3)nccc12 [Compound 3158, (R)-1,1,1-trifluoropropan-2-yl ((2R,6S,7R,9R,13aS,14aR,16aS,Z)-2-((7-fluoro-5-methoxyisoquinolin-1-yl)oxy)-7,9-dimethyl-14a-(((1-methylcyclopropyl)sulfonyl)carbamoyl)-5,16-dioxo-1,2,3,5,6,7,8,9,10,11,13a,14,14a,15,16,16a-hexadecahydrocyclopropa[e]pyrrolo[1,2-a][1,4]diazacyclopentadecin-6-yl)carbamate] | > 8.26 | > 8.26
COc1cc(F)cc2c(O[C@@H]3C[C@H]4C(=O)N[C@]5(C(=O)NS(=O)(=O)C6(C)CC6)C[C@H]5/C=C\CC[C@H](C)C[C@@H](C)[C@H](NC(=O)O[C@@H]5C[C@@H]6C[C@@H]6C5)C(=O)N4C3)nccc12 [Compound 3159, (1R,3r,5S)-bicyclo[3.1.0]hexan-3-yl((2R,6S,7R,9S,13aS,14aR,16aS,Z)-2-((7-fluoro-5-methoxyisoquinolin-1-yl)oxy)-7,9-dimethyl-14a-(((1-methylcyclopropyl)sulfonyl)carbamoyl)-5,16-dioxo-1,2,3,5,6,7,8,9,10,11,13a,14,14a,15,16,16a-hexadecahydrocyclopropa[e]pyrrolo[1,2-a][1,4]diazacyclopentadecin-6-yl)carbamate] | 6.99 to 8.32 | > 8.26
COc1cc(F)cc2c(O[C@@H]3C[C@H]4C(=O)N[C@]5(C(=O)NS(=O)(=O)C6(C)CC6)C[C@H]5/C=C\CC[C@@H](C)C[C@@H](C)[C@H](NC(=O)O[C@@H]5C[C@@H]6C[C@@H]6C5)C(=O)N4C3)nccc12 [Compound 3160, (1R,3r,5S)-bicyclo[3.1.0]hexan-3-yl((2R,6S,7R,9R,13aS,14aR,16aS,Z)-2-((7-fluoro-5-methoxyisoquinolin-1-yl)oxy)-7,9-dimethyl-14a-(((1-methylcyclopropyl)sulfonyl)carbamoyl)-5,16-dioxo-1,2,3,5,6,7,8,9,10,11,13a,14,14a,15,16,16a-hexadecahydrocyclopropa[e]pyrrolo[1,2-a][1,4]diazacyclopentadecin-6-yl)carbamate] | > 8.26 | > 8.26
COc1cc(F)cc2c(O[C@@H]3C[C@H]4C(=O)N[C@]5(C(=O)NS(=O)(=O)C6(C)CC6)C[C@H]5/C=C\CC[C@H](C)C[C@@H](C)[C@H](NC(=O)OCC5(C)CC5)C(=O)N4C3)nccc12 [Compound 3161, (1-methylcyclopropyl)methyl ((2R,6S,7R,9S,13aS,14aR,16aS,Z)-2-((7-fluoro-5-methoxyisoquinolin-1-yl)oxy)-7,9-dimethyl-14a-(((1-methylcyclopropyl)sulfonyl)carbamoyl)-5,16-dioxo-1,2,3,5,6,7,8,9,10,11,13a,14,14a,15,16,16a-hexadecahydrocyclopropa[e]pyrrolo[1,2-a][1,4]diazacyclopentadecin-6-yl)carbamate] | 6.99 to 8.32 | > 8.26
COc1cc(F)cc2c(O[C@@H]3C[C@H]4C(=O)N[C@]5(C(=O)NS(=O)(=O)C6(C)CC6)C[C@H]5/C=C\CC[C@@H](C)C[C@@H](C)[C@H](NC(=O)OCC5(C)CC5)C(=O)N4C3)nccc12 [Compound 3162, (1-methylcyclopropyl)methyl ((2R,6S,7R,9R,13aS,14aR,16aS,Z)-2-((7-fluoro-5-methoxyisoquinolin-1-yl)oxy)-7,9-dimethyl-14a-(((1-methylcyclopropyl)sulfonyl)carbamoyl)-5,16-dioxo-1,2,3,5,6,7,8,9,10,11,13a,14,14a,15,16,16a-hexadecahydrocyclopropa[e]pyrrolo[1,2-a][1,4]diazacyclopentadecin-6-yl)carbamate] | > 8.26 | > 8.26
COc1cc(F)cc2c(O[C@@H]3C[C@H]4C(=O)N[C@]5(C(=O)NS(=O)(=O)C6CC6)C[C@H]5/C=C\CC[C@H](C)C[C@@H](C)[C@H](NC(=O)OC(C)(C)C)C(=O)N4C3)nccc12 [Compound 3163, tert-butyl ((2R,6S,7R,9S,13aS,14aR,16aS,Z)-14a-((cyclopropylsulfonyl)carbamoyl)-2-((7-fluoro-5-methoxyisoquinolin-1-yl)oxy)-7,9-dimethyl-5,16-dioxo-1,2,3,5,6,7,8,9,10,11,13a,14,14a,15,16,16a-hexadecahydrocyclopropa[e]pyrrolo[1,2-a][1,4]diazacyclopentadecin-6-yl)carbamate] | 6.99 to 8.32 | 6.99 to 8.32
COc1cc(F)cc2c(O[C@@H]3C[C@H]4C(=O)N[C@]5(C(=O)NS(=O)(=O)C6CC6)C[C@H]5/C=C\CC[C@@H](C)C[C@@H](C)[C@H](NC(=O)OC(C)(C)C)C(=O)N4C3)nccc12 [Compound 3164, tert-butyl ((2R,6S,7R,9R,13aS,14aR,16aS,Z)-14a-((cyclopropylsulfonyl)carbamoyl)-2-((7-fluoro-5-methoxyisoquinolin-1-yl)oxy)-7,9-dimethyl-5,16-dioxo-1,2,3,5,6,7,8,9,10,11,13a,14,14a,15,16,16a-hexadecahydrocyclopropa[e]pyrrolo[1,2-a][1,4]diazacyclopentadecin-6-yl)carbamate] | > 8.26 | > 8.26
COc1cc(F)cc2c(O[C@@H]3C[C@H]4C(=O)N[C@]5(C(=O)NS(=O)(=O)C6CC6)C[C@H]5/C=C\CC[C@H](C)C[C@@H](C)[C@H](NC(=O)OC(C)(C)C(F)(F)F)C(=O)N4C3)nccc12 [Compound 3165, 1,1,1-trifluoro-2-methylpropan-2-yl((2R,6S,7R,9S,13aS,14aR,16aS,Z)-14a-((cyclopropylsulfonyl)carbamoyl)-2-((7-fluoro-5-methoxyisoquinolin-1-yl)oxy)-7,9-dimethyl-5,16-dioxo-1,2,3,5,6,7,8,9,10,11,13a,14,14a,15,16,16a-hexadecahydrocyclopropa[e]pyrrolo[1,2-a][1,4]diazacyclopentadecin-6-yl)carbamate] | 6.99 to 8.32 | 6.99 to 8.32
COc1cc(F)cc2c(O[C@@H]3C[C@H]4C(=O)N[C@]5(C(=O)NS(=O)(=O)C6CC6)C[C@H]5/C=C\CC[C@@H](C)C[C@@H](C)[C@H](NC(=O)OC(C)(C)C(F)(F)F)C(=O)N4C3)nccc12 [Compound 3166, 1,1,1-trifluoro-2-methylpropan-2-yl((2R,6S,7R,9R,13aS,14aR,16aS,Z)-14a-((cyclopropylsulfonyl)carbamoyl)-2-((7-fluoro-5-methoxyisoquinolin-1-yl)oxy)-7,9-dimethyl-5,16-dioxo-1,2,3,5,6,7,8,9,10,11,13a,14,14a,15,16,16a-hexadecahydrocyclopropa[e]pyrrolo[1,2-a][1,4]diazacyclopentadecin-6-yl)carbamate] | > 8.26 | > 8.26
